Results taken from ChEMBL document CHEMBL1152063, “4-Substituted proline derivatives that inhibit angiotensin converting enzyme and neutral endopeptidase 24.11” (Bioorg Med Chem Lett, 1994).

Key:
[1] = biological target: Angiotensin-converting enzyme (Homo sapiens, UniProt P12821); experiment: In vitro inhibition against angiotensin converting enzyme (ACE)
[2] = biological target: T1, Neprilysin (Rattus norvegicus, UniProt P07861); experiment: In vitro inhibition against neutral endopeptidase 24.11 (NEP) in rat kidney cortex membrane; assay type: cell membranes
T1 sequence (P07861 whole entry): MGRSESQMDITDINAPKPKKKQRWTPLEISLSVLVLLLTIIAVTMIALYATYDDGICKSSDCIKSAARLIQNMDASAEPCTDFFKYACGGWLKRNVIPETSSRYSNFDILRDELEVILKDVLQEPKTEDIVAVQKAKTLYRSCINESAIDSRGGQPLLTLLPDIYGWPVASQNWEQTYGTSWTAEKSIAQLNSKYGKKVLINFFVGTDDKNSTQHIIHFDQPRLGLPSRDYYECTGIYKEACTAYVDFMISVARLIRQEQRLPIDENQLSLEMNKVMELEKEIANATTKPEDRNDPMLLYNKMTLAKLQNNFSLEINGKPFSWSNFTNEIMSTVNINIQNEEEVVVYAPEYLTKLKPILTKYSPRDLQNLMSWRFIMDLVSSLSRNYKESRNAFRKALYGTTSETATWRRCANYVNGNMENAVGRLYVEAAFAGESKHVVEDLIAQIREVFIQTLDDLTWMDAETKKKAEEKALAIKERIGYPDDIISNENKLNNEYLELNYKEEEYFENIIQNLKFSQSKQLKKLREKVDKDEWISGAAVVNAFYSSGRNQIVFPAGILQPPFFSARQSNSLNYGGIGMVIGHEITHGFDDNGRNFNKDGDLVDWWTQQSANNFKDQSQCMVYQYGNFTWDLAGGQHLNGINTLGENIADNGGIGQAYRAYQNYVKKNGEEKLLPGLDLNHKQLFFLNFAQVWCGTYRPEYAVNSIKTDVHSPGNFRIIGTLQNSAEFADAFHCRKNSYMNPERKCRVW

Sequence of Angiotensin-converting enzyme (P12821 whole entry): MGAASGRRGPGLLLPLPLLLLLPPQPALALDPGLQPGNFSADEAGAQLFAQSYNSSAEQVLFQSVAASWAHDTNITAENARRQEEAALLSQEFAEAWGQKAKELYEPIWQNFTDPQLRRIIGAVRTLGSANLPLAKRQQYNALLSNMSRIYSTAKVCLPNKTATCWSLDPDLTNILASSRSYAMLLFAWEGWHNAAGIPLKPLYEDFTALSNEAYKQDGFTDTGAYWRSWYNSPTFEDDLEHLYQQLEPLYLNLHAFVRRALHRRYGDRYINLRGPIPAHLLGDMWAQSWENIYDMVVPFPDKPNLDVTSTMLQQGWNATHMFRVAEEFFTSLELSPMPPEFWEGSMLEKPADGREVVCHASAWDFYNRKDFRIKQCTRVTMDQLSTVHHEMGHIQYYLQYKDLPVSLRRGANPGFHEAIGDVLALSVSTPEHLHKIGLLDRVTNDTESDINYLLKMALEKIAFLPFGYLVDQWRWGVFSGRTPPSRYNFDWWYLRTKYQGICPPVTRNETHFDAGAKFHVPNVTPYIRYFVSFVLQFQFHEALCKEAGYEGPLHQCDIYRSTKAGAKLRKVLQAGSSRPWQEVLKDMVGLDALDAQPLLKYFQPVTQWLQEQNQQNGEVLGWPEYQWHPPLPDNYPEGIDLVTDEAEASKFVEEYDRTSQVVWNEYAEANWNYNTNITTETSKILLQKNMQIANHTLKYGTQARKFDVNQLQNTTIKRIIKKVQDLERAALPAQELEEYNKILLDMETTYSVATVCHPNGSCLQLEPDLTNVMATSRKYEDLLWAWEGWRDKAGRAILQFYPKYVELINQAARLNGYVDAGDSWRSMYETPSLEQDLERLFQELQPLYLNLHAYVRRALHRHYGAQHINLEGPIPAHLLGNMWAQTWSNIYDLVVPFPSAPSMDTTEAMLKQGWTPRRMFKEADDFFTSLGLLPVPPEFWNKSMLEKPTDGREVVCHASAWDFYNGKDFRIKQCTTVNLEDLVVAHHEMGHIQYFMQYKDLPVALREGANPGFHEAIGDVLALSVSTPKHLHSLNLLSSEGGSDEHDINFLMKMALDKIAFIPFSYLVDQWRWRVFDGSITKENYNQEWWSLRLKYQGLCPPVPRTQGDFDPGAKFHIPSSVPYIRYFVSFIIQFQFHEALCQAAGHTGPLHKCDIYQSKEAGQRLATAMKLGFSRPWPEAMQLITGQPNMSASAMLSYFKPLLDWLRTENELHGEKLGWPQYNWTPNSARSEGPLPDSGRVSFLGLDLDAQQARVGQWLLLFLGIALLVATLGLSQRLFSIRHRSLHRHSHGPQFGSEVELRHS

SMILES | IC50 [1] | IC50 [2] | Ki [2]
C[C@H](N[C@@H](CCc1ccccc1)C(=O)O)C(=O)N1C[C@@H](NC(=O)C(CS)Cc2ccccc2)C[C@H]1C(=O)O (some centres not stated) | 42 nM | 149 nM | 
C[C@H](CS)C(=O)N1C[C@@H](NC(=O)C(CS)Cc2ccccc2)C[C@H]1C(=O)O (some centres not stated) | 87 nM | 14 nM | 
O=C(O)CCCCCCNC(=O)C(CS)Cc1ccccc1 (configuration not stated) |  |  | 26 nM
C[C@H](N[C@@H](CCc1ccccc1)C(=O)O)C(=O)N1C[C@@H](NC(=O)NC(CS)Cc2ccccc2)C[C@H]1C(=O)O (some centres not stated) | 43 nM | 1240 nM | 
C[C@H](CS)C(=O)N1C[C@@H](NC(=O)NC(CS)Cc2ccccc2)C[C@H]1C(=O)O (some centres not stated) | 147 nM | 118 nM | 
C[C@H](N[C@@H](CCc1ccccc1)C(=O)O)C(=O)N1C[C@H](OC(=O)NC(CS)Cc2ccccc2)C[C@H]1C(=O)O (some centres not stated) | 506 nM | > 1000 nM | 
C[C@H](N[C@@H](CCc1ccccc1)C(=O)O)C(=O)N1C[C@H](NC(=O)C(CS)Cc2ccccc2)C[C@H]1C(=O)O (some centres not stated) | 253 nM | > 1000 nM | 
C[C@H](CS)C(=O)N1C[C@@H](NC(=O)C(CS)Cc2ccc(-c3ccccc3)cc2)C[C@H]1C(=O)O (some centres not stated) | 696 nM | 20 nM | 
C[C@H](CS)C(=O)N1C[C@H](NC(=O)C(CS)Cc2ccccc2)C[C@H]1C(=O)O (some centres not stated) | 18 nM | 849 nM | 
